The term IC50 denotes the point on the concentration scale where inhibition reaches its midpoint. Broadly, the AC50 is the concentration at which the activity in the assay is half-maximal. As a reminder, the CC50 is the concentration that lowers cell viability or growth by half. By EC50 is commonly meant the concentration needed to bring the measured effect to its halfway point.

One data set concerns the target T1, NADPH oxidase 1 (Homo sapiens, UniProt Q9Y5S8).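 Further: Cell-based assay with luminescence read-out, IC50 derived from inhibitor dose-response curves; intracellular ROS from endogenous NOX1 in intact HT29 colon cancer cells; potency of inhibitors that lower the ROS luminescence signal.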
T1 sequence (Q9Y5S8 whole entry): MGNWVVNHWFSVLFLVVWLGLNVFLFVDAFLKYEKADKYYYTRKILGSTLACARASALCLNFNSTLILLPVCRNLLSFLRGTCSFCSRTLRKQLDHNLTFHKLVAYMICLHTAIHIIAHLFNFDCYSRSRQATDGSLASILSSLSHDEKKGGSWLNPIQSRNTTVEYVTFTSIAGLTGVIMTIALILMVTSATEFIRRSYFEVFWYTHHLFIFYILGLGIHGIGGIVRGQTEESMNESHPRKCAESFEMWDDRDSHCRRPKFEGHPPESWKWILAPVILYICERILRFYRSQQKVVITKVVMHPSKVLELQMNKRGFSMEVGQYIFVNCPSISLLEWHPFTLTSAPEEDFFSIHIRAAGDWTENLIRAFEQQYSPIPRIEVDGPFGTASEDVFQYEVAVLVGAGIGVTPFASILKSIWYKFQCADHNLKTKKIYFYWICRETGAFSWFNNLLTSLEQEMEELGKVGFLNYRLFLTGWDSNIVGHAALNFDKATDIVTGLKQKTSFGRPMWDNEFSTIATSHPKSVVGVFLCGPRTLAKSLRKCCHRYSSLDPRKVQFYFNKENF
In kind it is functional, cell-based.

In a further data set the target is Cytochrome P450 3A4 (Homo sapiens, UniProt P08684). The following applies: Potency.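 Further: confirmatory qHTS run detecting inhibitors and substrates of CYP3A4.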
Chain of Cytochrome P450 3A4 (P08684 whole entry): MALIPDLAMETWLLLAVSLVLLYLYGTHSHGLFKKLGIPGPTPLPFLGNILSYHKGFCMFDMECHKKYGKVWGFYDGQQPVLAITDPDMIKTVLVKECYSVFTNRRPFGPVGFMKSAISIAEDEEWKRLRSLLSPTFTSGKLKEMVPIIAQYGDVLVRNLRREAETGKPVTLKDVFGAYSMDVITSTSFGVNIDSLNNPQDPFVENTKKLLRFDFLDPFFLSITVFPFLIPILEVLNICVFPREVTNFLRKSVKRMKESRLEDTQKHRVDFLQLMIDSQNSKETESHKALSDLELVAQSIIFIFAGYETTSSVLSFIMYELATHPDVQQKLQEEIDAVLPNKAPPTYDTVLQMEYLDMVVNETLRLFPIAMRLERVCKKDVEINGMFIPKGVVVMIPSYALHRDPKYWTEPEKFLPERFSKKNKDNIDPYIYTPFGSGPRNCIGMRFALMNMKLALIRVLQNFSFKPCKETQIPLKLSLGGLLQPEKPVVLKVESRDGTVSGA
The target in the next data set is Cytochrome P450 2C9 (Homo sapiens, UniProt P11712).
Chain of Cytochrome P450 2C9 (P11712 whole entry): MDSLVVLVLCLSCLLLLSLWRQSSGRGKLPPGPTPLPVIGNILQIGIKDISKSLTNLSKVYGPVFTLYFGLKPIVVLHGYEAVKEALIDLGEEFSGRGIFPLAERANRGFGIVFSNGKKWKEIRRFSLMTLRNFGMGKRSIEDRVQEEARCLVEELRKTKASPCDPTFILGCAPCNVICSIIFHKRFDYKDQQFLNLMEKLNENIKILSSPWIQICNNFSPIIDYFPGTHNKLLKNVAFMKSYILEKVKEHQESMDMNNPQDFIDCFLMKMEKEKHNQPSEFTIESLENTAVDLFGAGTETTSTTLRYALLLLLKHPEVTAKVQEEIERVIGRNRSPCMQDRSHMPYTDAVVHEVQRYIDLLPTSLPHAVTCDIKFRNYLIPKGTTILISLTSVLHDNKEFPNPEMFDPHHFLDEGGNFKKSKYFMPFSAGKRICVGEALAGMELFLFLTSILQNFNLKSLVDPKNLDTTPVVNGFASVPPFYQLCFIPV
The next data set has as its system Vero. Put plainly: cells. In kind it is functional. The note with it: Chlorocebus sabaeus.
The target of data set [1] is T2, Short transient receptor potential channel 4 (Mus musculus, UniProt Q9QUQ5).
T2 sequence (Q9QUQ5 whole entry): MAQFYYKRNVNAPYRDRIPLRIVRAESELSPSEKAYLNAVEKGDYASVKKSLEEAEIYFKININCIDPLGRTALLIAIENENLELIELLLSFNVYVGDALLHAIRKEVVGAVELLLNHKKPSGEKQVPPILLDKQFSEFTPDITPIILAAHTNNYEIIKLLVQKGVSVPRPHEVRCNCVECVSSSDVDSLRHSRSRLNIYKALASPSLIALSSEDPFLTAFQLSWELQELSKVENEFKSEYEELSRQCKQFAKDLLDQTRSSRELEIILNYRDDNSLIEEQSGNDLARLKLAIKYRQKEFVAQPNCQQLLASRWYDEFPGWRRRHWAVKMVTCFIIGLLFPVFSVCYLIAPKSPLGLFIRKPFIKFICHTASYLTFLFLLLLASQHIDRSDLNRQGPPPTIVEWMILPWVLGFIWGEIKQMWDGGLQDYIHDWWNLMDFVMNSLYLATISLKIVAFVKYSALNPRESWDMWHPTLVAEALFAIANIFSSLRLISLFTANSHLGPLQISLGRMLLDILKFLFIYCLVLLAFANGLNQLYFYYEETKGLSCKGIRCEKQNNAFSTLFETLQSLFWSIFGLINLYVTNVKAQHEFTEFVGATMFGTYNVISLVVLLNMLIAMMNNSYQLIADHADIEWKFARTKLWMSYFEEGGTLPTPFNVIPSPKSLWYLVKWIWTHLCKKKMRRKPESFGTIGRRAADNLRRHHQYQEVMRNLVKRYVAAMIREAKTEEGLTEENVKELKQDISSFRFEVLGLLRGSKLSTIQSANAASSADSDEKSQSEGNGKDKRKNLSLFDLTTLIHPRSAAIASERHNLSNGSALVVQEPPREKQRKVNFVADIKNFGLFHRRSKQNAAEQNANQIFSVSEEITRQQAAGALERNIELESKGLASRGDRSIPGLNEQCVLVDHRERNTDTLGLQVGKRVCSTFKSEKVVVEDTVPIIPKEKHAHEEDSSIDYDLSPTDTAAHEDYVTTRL
Nature of the data set: block of DAMGO-driven TRPC4 calcium entry – cell-based, HEK293 TRPC4/mu-opioid, Fluo-4 calcium, dose response (AID 434942).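 Further: potency of inhibitors blocking the TRPC4 calcium response.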 In kind it is functional.

The target in data set [2] is T3, High affinity choline transporter 1 (Homo sapiens, UniProt Q9GZV3).
T3 sequence (Q9GZV3 whole entry): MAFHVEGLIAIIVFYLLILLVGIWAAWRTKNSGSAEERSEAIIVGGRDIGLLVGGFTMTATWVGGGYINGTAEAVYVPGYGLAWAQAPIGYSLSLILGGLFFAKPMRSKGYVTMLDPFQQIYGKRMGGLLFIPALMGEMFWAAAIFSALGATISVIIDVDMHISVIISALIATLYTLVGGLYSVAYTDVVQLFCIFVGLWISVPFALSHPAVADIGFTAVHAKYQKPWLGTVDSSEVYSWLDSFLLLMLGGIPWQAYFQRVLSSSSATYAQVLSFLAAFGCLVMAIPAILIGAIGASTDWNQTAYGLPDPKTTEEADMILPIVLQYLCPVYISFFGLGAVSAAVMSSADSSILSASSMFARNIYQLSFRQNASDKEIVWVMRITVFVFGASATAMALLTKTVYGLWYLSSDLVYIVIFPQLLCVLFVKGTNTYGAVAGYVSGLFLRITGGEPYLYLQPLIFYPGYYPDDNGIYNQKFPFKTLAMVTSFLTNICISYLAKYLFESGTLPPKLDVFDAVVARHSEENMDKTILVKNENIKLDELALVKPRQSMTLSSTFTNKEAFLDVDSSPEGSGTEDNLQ
Nature of the data set: human choline transporter blockers, potency – cell-based, 5-point CRC, membrane potential dye, dose response (AID 504840). Type of data set: functional.

Data set [3] has as its target Nucleotide-binding oligomerization domain-containing protein 2 (Homo sapiens, UniProt Q9HC29). Nature of the data set: inhibition of NOD2-driven NF-kB reporter – cell-based, luminescence, uHTS, HEK293 (AID 1566). In kind it is functional.
Data set [4] deals with HEK293. Nature of the data set: cells. Type of data set: functional, cell-based. The following applies: Homo sapiens.
For data set [5], the system named is HEK293. Nature of the data set: inhibition of NOD1-driven NF-kB reporter – cell-based, luminescence, uHTS, primary screen (AID 1578). In kind it is functional. The note with it: Homo sapiens.
In data set [6] the test system is HEK293. Nature of the data set: NOD2 signaling inhibitors in MDP-stimulated cells, cell-based, uHTS, luminescence (AID 2001). Type of data set: functional. The following applies: Homo sapiens.
For data set [7], the system named is HEK293. Put plainly: cells. In kind it is functional, cell-based. The following applies: Homo sapiens. The source holds these as a separate data set.
For data set [8], the system named is HEK293. Nature of the data set: cells. Type of data set: functional, cell-based. The following applies: Homo sapiens. The source holds these as a separate data set.
Data set [9] has as its target T2, Short transient receptor potential channel 4. Nature of the data set: calcium entry via TRPC4 opening agents – cell-based, HEK293 TRPC4/mu-opioid, Fluo-4 calcium, dose response (AID 434937). In kind it is functional.
Data set [10] can be described thus: Luminescence Cell-Based Dose Retest to Confirm Inhibitors of Cancer Stem Cells. [Related pubchem assays (depositor defined):AID2717, AID2721]. Type of data set: functional. The note with it: Homo sapiens.
Data set [11] concerns the target T4, Rac GTPase-activating protein 1 (Homo sapiens, UniProt Q9H0H5).
T4 sequence (Q9H0H5 whole entry): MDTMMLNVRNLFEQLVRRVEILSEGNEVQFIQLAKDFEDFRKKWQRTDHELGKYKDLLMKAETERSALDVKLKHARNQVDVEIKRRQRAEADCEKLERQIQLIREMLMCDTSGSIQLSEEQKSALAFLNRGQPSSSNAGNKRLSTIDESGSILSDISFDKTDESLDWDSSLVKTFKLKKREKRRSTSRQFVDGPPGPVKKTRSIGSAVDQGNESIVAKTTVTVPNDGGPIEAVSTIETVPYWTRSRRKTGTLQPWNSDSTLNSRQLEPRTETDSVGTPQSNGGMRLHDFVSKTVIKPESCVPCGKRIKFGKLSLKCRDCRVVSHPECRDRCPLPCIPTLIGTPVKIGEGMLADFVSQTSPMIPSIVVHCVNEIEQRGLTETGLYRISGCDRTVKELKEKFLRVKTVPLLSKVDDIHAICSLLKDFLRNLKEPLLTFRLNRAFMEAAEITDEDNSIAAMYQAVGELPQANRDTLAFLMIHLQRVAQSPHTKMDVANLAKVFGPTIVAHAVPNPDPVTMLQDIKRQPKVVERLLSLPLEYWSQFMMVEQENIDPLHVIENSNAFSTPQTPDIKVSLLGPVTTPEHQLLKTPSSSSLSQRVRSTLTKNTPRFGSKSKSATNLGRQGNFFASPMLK
Nature of the data set: blockers of MgcRacGAP-driven Rac1 GTP hydrolysis – biochemical, ADP Hunter fluorescence, primary and confirmatory, confirmation (AID 624330). In kind it is functional.

The next data set deals with Cytochrome P450 2C19 (Homo sapiens, UniProt P33261). Put plainly: Cytochrome panel assay with activity outcomes. Panel member name: p450-cyp2c19 Compounds with AC50 equal or less than 10 uM are considered active. In kind it is functional. The following applies: read-out: AC50.
Chain of Cytochrome P450 2C19 (P33261 whole entry): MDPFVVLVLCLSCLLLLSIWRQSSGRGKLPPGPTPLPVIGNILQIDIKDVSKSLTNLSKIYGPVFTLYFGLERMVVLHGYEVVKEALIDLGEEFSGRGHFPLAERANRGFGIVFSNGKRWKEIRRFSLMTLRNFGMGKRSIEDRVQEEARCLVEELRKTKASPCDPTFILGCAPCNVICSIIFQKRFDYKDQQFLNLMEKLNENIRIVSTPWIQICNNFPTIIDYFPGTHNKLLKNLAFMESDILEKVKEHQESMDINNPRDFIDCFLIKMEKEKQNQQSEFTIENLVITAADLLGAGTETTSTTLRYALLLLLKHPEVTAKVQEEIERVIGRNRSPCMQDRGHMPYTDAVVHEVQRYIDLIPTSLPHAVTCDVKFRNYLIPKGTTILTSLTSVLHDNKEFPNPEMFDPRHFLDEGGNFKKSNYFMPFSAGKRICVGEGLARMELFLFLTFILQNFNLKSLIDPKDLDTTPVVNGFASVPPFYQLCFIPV

Each structure is given as a SMILES string. The source made the active and inactive calls. Some results are limits rather than exact numbers.

Chain of Nucleotide-binding oligomerization domain-containing protein 2 (Q9HC29 whole entry, the tested form may be a part): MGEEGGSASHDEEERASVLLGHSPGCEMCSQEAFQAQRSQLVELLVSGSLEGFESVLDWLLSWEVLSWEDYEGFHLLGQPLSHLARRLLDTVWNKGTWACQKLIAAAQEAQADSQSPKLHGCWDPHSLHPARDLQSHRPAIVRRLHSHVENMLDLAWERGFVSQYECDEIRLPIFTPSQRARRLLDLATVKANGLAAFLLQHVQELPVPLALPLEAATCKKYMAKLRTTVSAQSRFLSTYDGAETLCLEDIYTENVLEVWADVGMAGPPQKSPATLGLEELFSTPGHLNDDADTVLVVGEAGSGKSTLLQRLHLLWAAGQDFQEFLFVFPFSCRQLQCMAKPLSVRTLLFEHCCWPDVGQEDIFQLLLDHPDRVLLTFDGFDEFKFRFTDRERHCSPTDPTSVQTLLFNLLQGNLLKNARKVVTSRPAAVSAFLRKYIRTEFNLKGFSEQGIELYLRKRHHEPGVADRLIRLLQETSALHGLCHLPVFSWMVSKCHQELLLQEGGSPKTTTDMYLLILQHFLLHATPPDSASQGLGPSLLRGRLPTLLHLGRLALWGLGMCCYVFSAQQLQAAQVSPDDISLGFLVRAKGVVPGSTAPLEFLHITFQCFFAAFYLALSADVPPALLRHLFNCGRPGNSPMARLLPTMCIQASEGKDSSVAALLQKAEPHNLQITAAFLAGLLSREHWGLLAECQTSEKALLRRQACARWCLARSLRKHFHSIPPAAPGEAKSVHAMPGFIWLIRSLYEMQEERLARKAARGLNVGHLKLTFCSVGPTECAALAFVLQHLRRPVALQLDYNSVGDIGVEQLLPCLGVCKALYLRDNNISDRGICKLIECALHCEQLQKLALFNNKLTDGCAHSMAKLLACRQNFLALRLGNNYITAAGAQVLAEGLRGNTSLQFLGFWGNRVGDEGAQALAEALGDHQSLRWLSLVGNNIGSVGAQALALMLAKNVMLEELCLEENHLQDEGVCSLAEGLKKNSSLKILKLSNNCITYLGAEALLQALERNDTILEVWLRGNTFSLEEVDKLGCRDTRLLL

For `CCN(CC)c1ccc(NC(=O)Nc2ccc(OCc3ccccc3)cc2)cc1`, the half-inhibitory concentration (IC50) on NADPH oxidase 1 was 0.235 µM (active).

For the compound `CCOC(=O)C1(O)Oc2cc(OC)cc(OC)c2C(=O)C1c1ccccc1` (configuration not stated) [2-ETHOXYCARBONYL-2-HYDROXY-5,7-DIMETHOXYISOFLAVANONE], the concentration at half-maximal activity (AC50) on Cytochrome P450 3A4 is 20 µM (inconclusive).

For `N#Cc1cccc(-c2nc3cnc(N4CCOCC4)nc3n(Cc3ccc(F)cc3)c2=O)c1`, the AC50 result at Cytochrome P450 2C9 is “inconclusive”.

As for `Cc1ccc(OP(=O)(Oc2ccc(C)cc2)N2C=Cc3ccccc3[C@H]2C#N)cc1`, the half-maximal activity concentration (AC50) result at Cytochrome P450 2C9 is recorded as “inconclusive”.

Consider `Fc1ccc(NC(=S)NNC(=S)Nc2ccccc2)cc1`, for which the IC50 on NADPH oxidase 1 was 0.218 µM (active).

Consider `Cc1cc(OCc2cc(C(=O)NCCN3CCCCC3CO)no2)cc(C)c1Cl` (configuration not stated), for which, in the data set with Vero, the CC50 was > 25 µM (active). For the same compound, the 50% effective concentration (EC50) in data set [1] was 2.99 µM (active). Moreover, the concentration for half-maximal inhibition (IC50) in data set [2] was 18.2 µM (active).

On to `CCC(=O)CC(NC(=O)OC)c1ccccc1` (configuration not stated), for which, on Cytochrome P450 3A4, the half-maximal activity concentration (AC50) is 6.31 µM (inconclusive).

Regarding `Nc1ccc2ccccc2c1` [NAPHTHYLAMINE], at Cytochrome P450 3A4, the half-maximal activity concentration (AC50) was 12.6 µM (inconclusive).

As for `CCc1ccc(OCC(=O)Nc2ccc(-c3cc4ccccc4oc3=O)c(OC)c2)cc1`, the EC50 in [3] was 5.25 µM (active); in the data set on HEK293 [5], 2.18 µM (active). The IC50 in the data set on HEK293 [4] was > 20 µM (inactive); in the data set on HEK293 [6] it was 2.94 µM (active); with HEK293 [7], 2.79 µM (active); in the data set on HEK293 [8], 11.3 µM (active).

Consider `CSc1ccc(NC(=O)Nc2ccc(N(C)C)cc2)cc1`, for which, at NADPH oxidase 1, the IC50 was 0.0777 µM (active).

For the compound `O=C(Oc1ccc([N+](=O)[O-])cc1)c1sc2ccccc2c1Cl`, the IC50 on NADPH oxidase 1 is > 17 µM (not active).

As to `COc1cc(/C=C/C(=O)c2ccc3c(c2)OCO3)cc(Cl)c1O`, in data set [9], the EC50 is 5.96 µM (active). In addition, the AC50 in data set [10] was 6.39 µM (active). In addition, the IC50 in [11] is 93.6 µM (active).

As to `CNC(=O)[C@@]1(C)C=C[C@@H](Cc2ccccc2)N1C(=O)OC`, the AC50 at Cytochrome P450 3A4 is 3.16 µM (inconclusive).

`CN(C)C(CNC(=O)Cc1cccc(C(F)(F)F)c1)c1ccccc1` (configuration not stated): the EC50 in data set [9] was 0.0947 µM (active); in data set [1], 0.0093 µM (active).

Regarding `COc1ccc(F)cc1C(=O)C1CCCN(Cc2ccc3c(c2)OCCO3)C1` (configuration not stated), the EC50 in data set [1] was 1.33 µM (active).

Regarding `Cc1cc(C)cc(NC(S)=NC2CC3CCC(C2)N3Cc2ccco2)c1` (configuration not stated), the figures for the AC50 on Cytochrome P450 2C19 and on Cytochrome P450 2C9 were 35.5 µM (inconclusive) and “inconclusive”, respectively.

The values are drawn from ChEMBL document CHEMBL1201862, “PubChem BioAssay data set” (2004).
